US12454550B2, “Compositions and methods for bioorthogonal surface coating” (Rutgers, The State University of New Jersey, priority 2021, dated 2025)
Converted amounts (≈) assume the structure as drawn. Like-named read-outs stand apart in the source and are kept apart here.

Columns and labels:
S. aureus [1] = assay: Minimum Inhibitory Concentration (MIC) assay; format: cell-based; conditions: Staphylococcus aureus; in solution, 37° C., 18 to 24 h, n=3
Protocol: A glycerol stock of S. aureus was struck on a tryptic soy agar plate and incubated overnight at 37° C. Single colonies were then picked and diluted into tryptic soy broth (TSB) and left to grow overnight. Next, the culture was diluted approximately 40-fold into fresh TSB and grown to mid-log phase (OD600=0.4 to 0.8). 5 mg/mL stock solutions of Vancomycin-TCO and vancomycin in DMSO were serially diluted two-fold with TBS across the wells of a non-treated 96-well plate, with concentrations ranging from 0.0625 to 128 μg/mL. The mid-log phase cultures were diluted to a final concentration of 5×10^5 colony forming units (CFU)/mL in TSB then 50 μL was added to each antimicrobial-containing well, giving a final antimicrobial concentration range of 0.031 to 64 μg/mL. All the plates were covered and incubated at 37° C. for 18 to 24 h. The MIC was defined as the lowest compound concentration at which no bacterial growth was visible (n=3).

[2] = Stability of grafted enzymes after repeated use; format: biochemical; conditions: enzymes grafted on DOPA-Tet coated tubes, repeated substrate and buffer incubations with washes
Protocol: Eight 0.2 mL microcentrifuge tubes were coated with 50 μL of 10 mM DOPA-Tet. The tubes were washed thoroughly with TBS (pH 7.5). Three tubes each were grafted with 50 μL of either 0.1 mM ALP-TCO or 0.1 mM GOx-TCO and 0.1 mM HRP-TCO. The two remaining coated tubes were not grafted with any enzymes. The tubes were washed thoroughly with TBS (pH 7.5). 25 μL of 1 mg/mL p-NPP in TBS (pH 8.5) was added to the ALP-grafted tubes and 25 μL 1 mM ABTS and 1 mM D-glucose in PBS (pH 7.4) was added to the GOX/HRP grafted tubes. Each substrate solution was also added to one of the tubes that was not grafted (for controls). […] Absorbance at 405 nm was measured on a spectrophotometer (Thermo Scientific NanoDropOneC). All tubes were then thoroughly washed with TBS (pH 7.5). Then TBS (pH 8.5) was added to the ALP-grafted tubes and PBS (pH 7.4) was added to the GOX/HRP grafted tubes. Each buffer solution was also added to one of the tubes that was not grafted. […] The buffer solutions were then removed from the tubes. This process of incubating with substrate and then buffer solutions was repeated for all tubes 9 more times, for a total of 10 cycles.

[3] = Colorimetric assay using ALP on DOPA-Tet coated microcentrifuge tubes; format: biochemical; conditions: tubes coated with 10 mM DOPA-Tet, treated with enzyme and washed; 1 mg/mL p-NPP, 1 hour, room temperature
Protocol: For the colorimetric assay using ALP, TBS was chosen as the buffer for washing and testing, because the high concentration of phosphate in PBS could affect the phosphatase activity of ALP. TCO-conjugated ALP (ALP-TCO) was prepared as described elsewhere herein. 0.2 mL microcentrifuge tubes (Bio-Rad Laboratories) were coated with 10 mM DOPA-Tet. The tubes were washed thoroughly with TBS 7.5 and sonicated to remove any loose aggregates. The tubes were grafted with either 0.2 mM ALP-TCO or 0.2 mM ALP, both in TBS 7.5. 50 μL of 1 mg/mL p-NPP in TBS 8.5 was added to each tube and incubated at room temperature for 1 hour. Absorbance at 405 nm was measured on a spectrophotometer (NanoDrop One). Three replicates for each grafted molecule, ALP-TCO or ALP, were prepared and measured.

[4] = Michaelis-Menten kinetics of native and TCO-conjugated ALP (UV-Vis, 405 nm); format: biochemical; conditions: 5 nM enzyme, p-NPP in TBS 8.5, room temperature
Protocol: Both assays produce an increase in absorbance at 405 nm, the evolution of which at room temperature was measured on a microplate reader (SpectraMax iD3) over 1 hour. […] These trials were omitted from data analysis. Velocities were estimated by linear regression, and Michaelis-Menten parameters were calculated using both Lineweaver-Burk plots and non-linear least squares regression. R-squared values for all regressions were above 0.95 with the vast majority being above 0.98.

S. aureus [5] = assay: Planktonic bacterial growth inhibition at the surface (PrestoBlue); format: cell-based; conditions: coated 96-well plate, incubated overnight, resazurin readout
Protocol: The wells of a non-treated clear 96 well culture plate were either left uncoated or coated with 10 mM DOPA-Tet and then incubated with either vancomycin-TCO, vancomycin, or PBS. […] 100 μL of culture was added to the wells and the plate was covered and incubated at 37° C. for 18 hours, after which 10 μL of PrestoBlue™ was added to each well. After 1 hour incubation, the media was transferred to clean wells and absorbance at 570 nm was recorded using a plate reader.

S. aureus biofilm [6] = assay: Biofilm microscopy (PI/SYTO 9, CLSM); format: cell-based; conditions: coated microscopy dishes, PI/SYTO 9 staining
Protocol: 200 μL of freshly prepared coating solution containing 10 mM DOPA-Tet and 2500 U/mL tyrosinase in PBS was added to a glass bottom culture dush. The dish was incubated at room temperature for 6 hours, during which a coating was formed. […] S. aureus was grown overnight in TSB, then diluted 1:100 in TSB containing 3% glucose. 300 μL of the dilute bacteria was added to the microscope dishes, which were then placed in a 37° C. incubator. The samples were incubated for 72 hours, with the media being topped up every day to account for evaporation. The media was decanted and then the dishes were washed with 200 μL of 0.9% NaCl, followed by a 1-hour incubation at room temperature with 250 μL of TSB containing Syto9 (10 μM) and PI (10 μM). The dyes were then decanted and the samples were washed again with saline. Finally, 150 μL of HBSS was added, and the dishes were imaged on a Leica SP8 confocal microscope.

S. aureus biofilm [7] = assay: Biofilm crystal violet assay; format: cell-based; conditions: coated surfaces incubated with S. aureus for 72 hours
Protocol: 100 μL of freshly prepared coating solution containing 10 mM DOPATet and 2500 U/mL tyrosinase in PBS was added to the wells of a 96-well plate and incubated at room temperature for 6 hours. […] As described elsewhere herein, S. aureus was grown overnight in TSB, then diluted 1:100 in TSB containing 3% glucose. 300 μL of the dilute bacteria was added to the coated well plate, which was then incubated at 37° C. for 72 hours. After incubation the media was decanted, and the plate was air dried for 5 minutes. 200 μL of 0.9% NaCl in sterile water was gently added to the wells, then decanted, and air dried for 5 minutes. The wells were washed twice more with 0.9% NaCl, and after the final drying, 200 μL methanol was added to each well. The plate was left at room temperature for 15 minutes, then the methanol was decanted and the plate air dried for 5 minutes. 100 μL of 3% crystal violet in sterile water was added to the wells and incubated at room temperature for 20 minutes. The dye was decanted, and the plate air dried. The wells were washed three times with 0.9% NaCl as above. After the final air drying, 150 μL of methanol was added to the wells, and mixed to allow for dissolution of the crystal violet. The dye solution was then decanted and diluted 1:10 in methanol, then the absorbance at 590 nm was recorded.

[8] = Colorimetric assay using GOx/HRP on DOPA-Tet coated microcentrifuge tubes; format: biochemical; conditions: tubes coated with 10 mM DOPA-Tet, treated with enzymes and washed; 1 mM D-glucose and 1 mM ABTS, 1 hour
Protocol: TCO-conjugated GOx (GOx-TCO) and HRP (HRP-TCO) were prepared as described above. 0.2 mL microcentrifuge tubes were coated with 10 mM DOPA-Tet. The tubes were washed with PBS and sonicated to help remove any loose aggregates. The tubes were grafted with either 0.2 mM GOx-TCO and 0.2 mM HRP-TCO, or 0.2 mM GOx and 0.2 mM HRP. […] Absorbance at 405 nm was measured on a spectrophotometer (NanoDrop One). Three replicates of each set of enzymes, TCO-conjugated or native, were prepared and measured.

[9] = Coating stability at various pH; format: physicochemical; conditions: coated glass vials, 5 days at 37° C.
Protocol: Six 4 mL glass vials (VWR International) were coated with 10 mM DOPA-Tet and incubated for 5 days at 37° C. in 1 mL of either 50 mM MES pH 4.5 (Millipore-Sigma), 100 mM IVIES pH 6.0, PBS, TBS 8.5, 100 mM NaHCO3 pH 9.5 (Millipore-Sigma) or 10% DMSO (Millipore-Sigma) in PBS. After incubation, samples were rinsed with Milli-Q water, dried, and imaged.

[10] = Coating stability in human serum, ALP activity on p-NPP afterwards; format: biochemical; conditions: DOPA-Tet coated glass vial, 5 days at 37° C. in human serum, then 1 mg/mL p-NPP 1 hour
Protocol: Two additional 4 mL glass vials were prepared and incubated in human serum. Both samples were coated with 10 mM DOPA-Tet, and one was grafted with 0.2 mM ALP-TCO. Both samples were incubated in 1 mL of human serum from clotted whole blood (Millipore-Sigma) for 5 days at 37° C. After incubation, both samples were washed with PBS and 1 mL of 1 mg/mL p-NPP was added. After incubation for 1 hour at room temperature, both samples were imaged and their absorbance at 405 nm was measured on a spectrophotometer (NanoDrop One).

Molecule: CN[C@H](CC(C)C)C(=O)N[C@H]1C(=O)N[C@@H](CC(N)=O)C(=O)N[C@H]2C(=O)N[C@H]3C(=O)N[C@H](C(=O)N[C@H](C(=O)NCCOCCOCCOCCOCCOCCOCCOCCOCCNC(=O)OC4CC/C=C/CCC4)c4cc(O)cc(O)c4-c4cc3ccc4O)[C@H](O)c3ccc(c(Cl)c3)Oc3cc2cc(c3O[C@@H]2O[C@H](CO)[C@@H](O)[C@H](O)[C@H]2O[C@H]2C[C@](C)(N)[C@H](O)[C@H](C)O2)Oc2ccc(cc2Cl)[C@H]1O (some centres unmarked) [vancomycin-TCO]
- MIC (S. aureus [1]): 16 µg/mL (≈ 8.02 µM)

Molecule: ALP: alkaline phosphatase, native enzyme (SEQ ID NO:2)
- loss of activity on repeated use (absorbance at 405 nm) [2]: little loss of activity over 10 cycles
- activity (absorbance at 405 nm) [3]: 1.66 OD
- Km ([4]; Lineweaver-Burk plots, read-out: Km by LB): 281 µM
- Km ([4]; non-linear least squares regression, read-out: Km by nls): 207 µM

Molecule: Cc1nnc(-c2ccc(OCCOCCOCCOCCNC(=O)C(N)Cc3ccc(O)c(O)c3)cc2)nn1 (racemic) [DOPA-Tet, (±)-2-amino-3-(3,4-dihydroxyphenyl)-N-(2-(2-(2-(2-(4-(6-methyl-1,2,4,5-tetrazin-3-yl)phenoxy)ethoxy)ethoxy)ethoxy)ethyl)propanamide]
- growth of S. aureus (planktonic) (S. aureus [5]): not antimicrobial
- biofilm formation (CLSM) (S. aureus biofilm [6]): no biofilm was observed
- biofilm formation (crystal violet, absorbance at 590 nm) (S. aureus biofilm [7]): successfully inhibited biofilm formation
- activity (absorbance at 405 nm) [8]: −0.07 OD
- activity (absorbance at 405 nm) [3]: 0.05 OD
- coating stability ([9]; 10% DMSO in PBS): slightly solubilized
- coating stability ([9]; buffered from pH 4.5 to 8.5): No degradation of the coating was observed
- coating stability ([9]; pH 9.5): delamination and degradation of the coating were observed
- ALP activity on p-NPP after incubation in human serum [10]: did not show any visually detectable activity
